In ChEMBL document CHEMBL1201862, “PubChem BioAssay data set” (2004):
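Interpolation was linear, between the two tested concentrations surrounding the appropriate level; five concentrations were tested over 48 hours in 96-well plates. GI50 is the concentration that inhibits growth by half.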 Calls of active or inactive are those of the source. Cut-off read from the data, not from the text of the source: active = GI50 up to about 1.1 µM and inactive = higher.

Experiments:
Assay in all cases: NCI-60 cell line screen, 48 h
BT-549 = system: BT-549
CAKI-1 = system: CAKI-1
UACC-257 = system: UACC-257
MDA-N = system: MDA-N
OVCAR-5 = system: OVCAR-5
NCI-H23 = system: NCI-H23
RPMI-8226 = system: RPMI-8226
MOLT-4 = system: MOLT-4
SN12C = system: SN12C
CCRF-CEM = system: CCRF-CEM
HT-29 = system: HT-29
HCC 2998 = system: HCC 2998
Malme-3M = system: Malme-3M
HCT-116 = system: HCT-116
HCT-15 = system: HCT-15
MCF7 = system: MCF7
NCI/ADR-RES = system: NCI/ADR-RES
SNB-19 = system: SNB-19
Hs-578T = system: Hs-578T
DU-145 = system: DU-145
SNB-75 = system: SNB-75
COLO 205 = system: COLO 205
SF-539 = system: SF-539
SF-295 = system: SF-295
NCI-H460 = system: NCI-H460
SK-MEL-5 = system: SK-MEL-5
MDA-MB-435 = system: MDA-MB-435
SK-MEL-28 = system: SK-MEL-28
M14 = system: M14
PC-3 = system: PC-3
HL-60 = system: HL-60
OVCAR-3 = system: OVCAR-3
ACHN = system: ACHN
SF-268 = system: SF-268
A498 = system: A498
NCI-H522 = system: NCI-H522
SW-620 = system: SW-620
786-0 = system: 786-0
EKVX = system: EKVX
NCI-H226 = system: NCI-H226
OVCAR-4 = system: OVCAR-4
KM12 = system: KM12
SK-MEL-2 = system: SK-MEL-2
SR = system: SR
HOP-62 = system: HOP-62
OVCAR-8 = system: OVCAR-8
A549 = system: A549
U-251 = system: U-251
UACC-62 = system: UACC-62
TK-10 = system: TK-10
SK-OV-3 = system: SK-OV-3
T47D = system: T47D
UO-31 = system: UO-31
IGROV-1 = system: IGROV-1
RXF 393 = system: RXF 393
HOP-92 = system: HOP-92
K562 = system: K562
LOX IMVI = system: LOX IMVI
MDA-MB-231 = system: MDA-MB-231

SMILES: O=[N+]([O-])c1ccc2nc(-c3ccccn3)c(-c3ccccn3)nc2c1
- GI50 (BT-549): > 100 µM (inactive)
- GI50 (CAKI-1): > 100 µM (inactive)
- GI50 (UACC-257): 98.4 µM (inactive)
- GI50 (MDA-N): 45.4 µM (inactive)
- GI50 (OVCAR-5): > 100 µM (inactive)
- GI50 (NCI-H23): > 100 µM (inactive)
- GI50 (RPMI-8226): > 100 µM (inactive)
- GI50 (MOLT-4): > 100 µM (inactive)
- GI50 (SN12C): > 100 µM (inactive)
- GI50 (CCRF-CEM): 69.8 µM (inactive)
- GI50 (HT-29): 40.5 µM (inactive)
- GI50 (HCC 2998): > 100 µM (inactive)
- GI50 (Malme-3M): 61.2 µM (inactive)
- GI50 (HCT-116): 38.9 µM (inactive)
- GI50 (HCT-15): 43 µM
- GI50 (MCF7): 57.7 µM (inactive)
- GI50 (NCI/ADR-RES): > 100 µM (inactive)
- GI50 (SNB-19): > 100 µM (inactive)
- GI50 (Hs-578T): > 100 µM (inactive)
- GI50 (DU-145): > 100 µM (inactive)
- GI50 (SNB-75): > 100 µM (inactive)
- GI50 (COLO 205): 30.5 µM (inactive)
- GI50 (SF-539): 45.9 µM (inactive)
- GI50 (SF-295): 96.8 µM (inactive)
- GI50 (NCI-H460): 45.7 µM (inactive)
- GI50 (SK-MEL-5): 24.4 µM (inactive)
- GI50 (MDA-MB-435): > 100 µM (inactive)
- GI50 (SK-MEL-28): > 100 µM (inactive)
- GI50 (M14): 66.7 µM (inactive)
- GI50 (PC-3): 38.5 µM (inactive)
- GI50 (HL-60): 28 µM (inactive)
- GI50 (OVCAR-3): 29.4 µM (inactive)
- GI50 (ACHN): 80 µM (inactive)
- GI50 (SF-268): > 100 µM (inactive)
- GI50 (A498): > 100 µM (inactive)
- GI50 (NCI-H522): 44.9 µM (inactive)
- GI50 (SW-620): 41.9 µM (inactive)
- GI50 (786-0): > 100 µM (inactive)
- GI50 (EKVX): 71 µM (inactive)
- GI50 (NCI-H226): > 100 µM (inactive)
- GI50 (OVCAR-4): > 100 µM (inactive)
- GI50 (KM12): > 100 µM (inactive)
- GI50 (SK-MEL-2): > 100 µM (inactive)
- GI50 (SR): 33.1 µM (inactive)
- GI50 (HOP-62): 35.1 µM (inactive)
- GI50 (OVCAR-8): 94 µM (inactive)
- GI50 (A549): 57.4 µM (inactive)
- GI50 (U-251): > 100 µM (inactive)
- GI50 (UACC-62): 44.5 µM (inactive)
- GI50 (TK-10): > 100 µM (inactive)
- GI50 (SK-OV-3): > 100 µM (inactive)
- GI50 (T47D): > 100 µM (inactive)
- GI50 (UO-31): > 100 µM (inactive)
- GI50 (IGROV-1): 94.6 µM (inactive)
- GI50 (RXF 393): 86.5 µM (inactive)
- GI50 (HOP-92): > 100 µM (inactive)

SMILES: Cc1ncc(CO)c(CN)c1O
- GI50 (BT-549): > 100 µM (inactive)
- GI50 (CAKI-1): > 100 µM (inactive)
- GI50 (UACC-257): > 100 µM (inactive)
- GI50 (MDA-N): > 100 µM (inactive)
- GI50 (OVCAR-5): > 100 µM (inactive)
- GI50 (NCI-H23): > 100 µM (inactive)
- GI50 (RPMI-8226): > 100 µM (inactive)
- GI50 (MOLT-4): > 100 µM (inactive)
- GI50 (SN12C): > 100 µM (inactive)
- GI50 (CCRF-CEM): > 100 µM (inactive)
- GI50 (HT-29): > 100 µM (inactive)
- GI50 (HCC 2998): > 100 µM (inactive)
- GI50 (Malme-3M): > 100 µM (inactive)
- GI50 (HCT-116): > 100 µM (inactive)
- GI50 (HCT-15): > 100 µM
- GI50 (MCF7): > 100 µM (inactive)
- GI50 (NCI/ADR-RES): > 100 µM (inactive)
- GI50 (SNB-19): > 100 µM (inactive)
- GI50 (Hs-578T): > 100 µM (inactive)
- GI50 (DU-145): > 100 µM (inactive)
- GI50 (COLO 205): > 100 µM (inactive)
- GI50 (SF-539): > 100 µM (inactive)
- GI50 (K562): > 100 µM (inactive)
- GI50 (SF-295): > 100 µM (inactive)
- GI50 (NCI-H460): > 100 µM (inactive)
- GI50 (LOX IMVI): > 100 µM (inactive)
- GI50 (SK-MEL-5): > 100 µM (inactive)
- GI50 (MDA-MB-435): > 100 µM (inactive)
- GI50 (SK-MEL-28): > 100 µM (inactive)
- GI50 (M14): > 100 µM (inactive)
- GI50 (PC-3): > 100 µM (inactive)
- GI50 (HL-60): 41.9 µM (inactive)
- GI50 (OVCAR-3): > 100 µM (inactive)
- GI50 (ACHN): > 100 µM (inactive)
- GI50 (SF-268): > 100 µM (inactive)
- GI50 (A498): > 100 µM (inactive)
- GI50 (NCI-H522): > 100 µM (inactive)
- GI50 (SW-620): > 100 µM (inactive)
- GI50 (786-0): > 100 µM (inactive)
- GI50 (EKVX): > 100 µM (inactive)
- GI50 (NCI-H226): > 100 µM (inactive)
- GI50 (OVCAR-4): > 100 µM (inactive)
- GI50 (KM12): > 100 µM (inactive)
- GI50 (SK-MEL-2): > 100 µM (inactive)
- GI50 (MDA-MB-231): > 100 µM (inactive)
- GI50 (HOP-62): > 100 µM (inactive)
- GI50 (OVCAR-8): > 100 µM (inactive)
- GI50 (A549): > 100 µM (inactive)
- GI50 (U-251): > 100 µM (inactive)
- GI50 (UACC-62): > 100 µM (inactive)
- GI50 (TK-10): > 100 µM (inactive)
- GI50 (SK-OV-3): > 100 µM (inactive)
- GI50 (T47D): > 100 µM (inactive)
- GI50 (UO-31): > 100 µM (inactive)
- GI50 (IGROV-1): > 100 µM (inactive)
- GI50 (RXF 393): > 100 µM (inactive)
